Test in all cases: inhibition of tumour cell growth, NCI panel, 48 h
Experiment [1] deals with LOX IMVI melanoma.
Experiment [2] has as its system U251 CNS.
For experiment [3], the system named is UACC-257 melanoma.
Experiment [4] relates to NCI-H226 lung.
Experiment [5] relates to SK-MEL-2 melanoma.
The test system of experiment [6] is K-562 leukemia.
The subject of experiment [7] is SN12C renal.
The test system of experiment [8] is DU-145 prostate.
In experiment [9] the test system is MCF7 breast.
The test system of experiment [10] is TK-10 renal.
The subject of experiment [11] is SNB-75 CNS.
Experiment [12] relates to HS 578T breast.
Experiment [13] deals with PC-3 prostate.
The test system of experiment [14] is SF-295 CNS.
In experiment [15] the test system is A549 NSCLC.

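Each compound was tested at five concentrations against cells in 96-well plates for 48 hours. TGI denotes the concentration required for complete inhibition of growth.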

`Cc1cccc(-n2c(C)nc3ccc(NC4OC(CO)C(O)C(O)C4O)cc3c2=O)c1` (stereo not drawn): the TGI in [1], in experiment [2], in [3], in [4], in [5] and in experiment [6] was > 100 µM throughout. In addition, the TGI in experiment [7], in experiment [8], in [9], in [10], in experiment [11] and in experiment [12] was > 100 µM in each case. In addition, the TGI in [13] and in [14] was > 100 µM in each case.
Turning to `CCN(CC)c1ccc2c(c1)OC(=O)C(c1nnc(-c3ccc([N+](=O)[O-])cc3)o1)C2` (stereo not drawn), the TGI in [1], in [2], in experiment [3], in [4], in [5] and in [6] was > 100 µM in each case. Moreover, the TGI in experiment [8], in experiment [9], in experiment [10], in experiment [11], in experiment [12] and in experiment [13] was > 100 µM in each case. For the same molecule, the TGI in [14] and in [15] was > 100 µM throughout.
As for `Nc1nc(Cl)c(N)c(NCC2(CO)CC(Cc3ccccc3)C2)n1` (stereo not drawn), the TGI is > 100 µM in experiment [1]; > 56.7 µM in experiment [2]; > 86.3 µM in [3]; > 100 µM in experiment [4]; > 100 µM in experiment [5]; > 94.3 µM in experiment [6]. In addition, the TGI in experiment [7] is > 100 µM; in [8] it was > 100 µM; in [9], > 69.2 µM; in [10], > 100 µM; in [11], > 100 µM; in [12], > 100 µM. The TGI in experiment [13], in [14] and in [15] was > 100 µM each time.
As to `COc1cc(O)c2c(=O)c(OC)c(-c3ccc4c(c3)OCO4)oc2c1`, the TGI in [1] was > 100 µM; in experiment [2] it was 30.2 µM; in experiment [3], > 100 µM; in [4], > 100 µM; in experiment [5] it was > 100 µM; in experiment [6] it was > 100 µM. In addition, the TGI in [7] was > 100 µM; in experiment [8], > 100 µM; in experiment [9], > 100 µM; in experiment [10], > 100 µM; in experiment [11] it was 14.9 µM; in experiment [12] it was > 100 µM. Also, the results for the TGI in experiment [13], in [14] and in [15] were > 100 µM, > 92.2 µM and > 100 µM, respectively.
Regarding `CSc1c(C#N)c(O)n(-c2ccc(C)cc2)c(=O)c1C#N`, the TGI in experiment [1], in experiment [2], in experiment [3], in experiment [4], in [5] and in experiment [6] was > 100 µM each time. In addition, the TGI in experiment [7], in experiment [8], in experiment [9], in experiment [10], in experiment [11] and in [12] was > 100 µM throughout. Moreover, the TGI in experiment [13] and in experiment [15] was > 100 µM throughout.
For `Cc1c(/C=N/NC(=S)Nc2cccc(Cl)c2)c(=O)n(-c2ccccc2)n1C`, the TGI in experiment [1] was > 100 µM; in experiment [2], 44.6 µM; in experiment [3] it was > 100 µM; in [4], 33.9 µM; in experiment [5] it was 36.7 µM; in experiment [6] it was 31.5 µM. For the same molecule, the TGI in experiment [8] is 66.9 µM; in experiment [9], 62.5 µM; in experiment [10] it was 44.3 µM; in experiment [11], 28.3 µM; in experiment [12], 33.6 µM; in experiment [13], > 100 µM. In experiment [14], this molecule returned a TGI of 28 µM.
In the case of `Cc1cc(C)nc(NS(=O)(=O)c2ccc(NN=c3c4ccccc4n(C)c4ccccc34)cc2)n1`, the TGI in experiment [1] was 96.7 µM; in experiment [2], > 100 µM; in [3], > 100 µM; in experiment [4] it was > 100 µM; in [5], 58.8 µM; in [6] it was 66.2 µM. For the same molecule, the TGI is > 100 µM in [7]; > 100 µM in [8]; 55.7 µM in [9]; > 100 µM in experiment [10]; 96.9 µM in [11]; > 100 µM in experiment [12]. Further, the TGI in experiment [13], in experiment [14] and in [15] was > 100 µM in each case.
As to `Cc1nc(Cl)c2sc(=S)n(-c3ccc(F)cc3)c2n1`, the TGI is 3.61 µM in experiment [1]; 17.7 µM in experiment [2]; 10.5 µM in experiment [3]; 34.6 µM in [4]; 25.4 µM in [5]; > 100 µM in [6]. Besides, the TGI in experiment [7] was determined as 18.4 µM; in experiment [8], 3.82 µM; in experiment [9] it was 13.2 µM; in experiment [10] it was 12.8 µM; in experiment [11], 18.1 µM; in [12] it was 6.24 µM. In addition, the results for the TGI in experiment [13], in experiment [14] and in experiment [15] were 36.8 µM, 22.8 µM and 25.4 µM, respectively.
As for `CCC[C@H](O)[C@@H](CNc1cc(NC(C)=O)nc(NC(C)=O)n1)N(Cc1ccccc1)Cc1ccccc1`, the TGI in [1] is > 100 µM; in experiment [2], > 100 µM; in [3] it was > 100 µM; in experiment [4], 33.1 µM; in [5], > 100 µM; in [6], > 100 µM. Besides, the TGI in [7] was > 100 µM; in experiment [8] it was > 100 µM; in [9] it was 25.8 µM; in experiment [10], 45.1 µM; in experiment [11], 34.8 µM; in [12] it was > 100 µM. For the same molecule, the TGI is 33.5 µM in experiment [13], 25.5 µM in experiment [14] and 72.1 µM in [15].
`Clc1cc(OCc2nn3c(Cc4ccccc4)nnc3s2)ccc1OCc1nn2c(Cc3ccccc3)nnc2s1`: the TGI is > 100 µM in experiment [1]; 51.5 µM in experiment [2]; > 100 µM in [3]; > 100 µM in [4]; > 100 µM in experiment [5]; > 100 µM in experiment [6]. Besides, the TGI in [7] was > 100 µM; in experiment [8], > 100 µM; in experiment [9] it was > 100 µM; in experiment [10], 72.1 µM; in experiment [11], 39 µM; in experiment [12] it was > 100 µM. For the same molecule, the results for the TGI in [13], in experiment [14] and in [15] were > 100 µM, 63.9 µM and > 100 µM, respectively.
In the case of `OC(CC(CC(O)(C(F)(F)Cl)C(F)(F)Cl)=NNc1ccccc1)(C(F)(F)Cl)C(F)(F)Cl`, the TGI in [1] is 6.91 µM; in [2], > 10 µM; in [3], 5.24 µM; in [4] it was 7.89 µM; in [5], 3.56 µM; in experiment [6], > 10 µM. Besides, the TGI in [7] is > 10 µM; in experiment [8], 9.08 µM; in experiment [9] it was 9.93 µM; in experiment [10], 9.04 µM; in experiment [11], 7.69 µM; in experiment [12], 5.93 µM. In addition, the TGI is 4.7 µM in [13], 7.09 µM in experiment [14] and > 10 µM in [15].
For the molecule `[N-]=[N+]=Nc1ccc(NCCCCCC(=O)ON2C(=O)CCC2=O)c([N+](=O)[O-])c1`, the TGI in experiment [1], in experiment [2], in experiment [3], in experiment [4], in experiment [5] and in [6] was > 100 µM in each case. Also, the TGI in experiment [7] was > 100 µM; in experiment [8], > 100 µM; in experiment [9], > 100 µM; in [10], > 100 µM; in experiment [11], > 100 µM; in experiment [12], 97.2 µM. In addition, the TGI in experiment [13], in experiment [14] and in [15] was > 100 µM each time.
For the molecule `CO[C@H]1O[C@@H]2CO[C@@H](c3ccccc3)O[C@H]2[C@@H]2CC=CCC[C@]12O`, the TGI in experiment [1], in [2], in experiment [3], in experiment [4], in experiment [5] and in experiment [6] was > 100 µM each time. The TGI is > 100 µM in experiment [7]; > 100 µM in [8]; > 100 µM in experiment [9]; > 100 µM in experiment [10]; > 100 µM in [11]; 18.2 µM in experiment [12]. Further, the TGI in experiment [13], in experiment [14] and in experiment [15] was > 100 µM throughout.
Turning to `COC(=O)c1ccccc1/C=C1/Cc2cccc(C)c2C1=O`, the TGI in experiment [1], in experiment [2], in experiment [3], in [4], in experiment [6] and in [7] was > 100 µM each time. Moreover, the TGI in experiment [8], in experiment [9], in [10], in [11], in experiment [12] and in experiment [13] was > 100 µM throughout. Besides, the TGI in experiment [14] and in experiment [15] was > 100 µM each time.
Consider `O=C(O)CN=C(C(=NCC(=O)O)c1ccccc1)c1ccccc1`, for which the TGI in experiment [1], in [2], in [3], in [4], in experiment [5] and in experiment [6] was > 100 µM each time. In addition, the TGI in [7], in experiment [8], in [9], in [10], in [11] and in experiment [12] was > 100 µM each time. Further, the TGI in experiment [13], in experiment [14] and in [15] was > 100 µM each time.
As to `Nc1ccc(-c2ncc3cc(-c4cccc(-c5cc6cnc(-c7ccc(N)cc7)nc6c6ccccc56)c4)c4ccccc4c3n2)cc1`, the TGI in [1], in experiment [2], in experiment [3], in experiment [4], in experiment [5] and in experiment [6] was > 100 µM throughout. In addition, the TGI in experiment [7], in [8], in experiment [9], in [10], in experiment [11] and in experiment [12] was > 100 µM throughout. Besides, the TGI in experiment [13], in experiment [14] and in experiment [15] was > 100 µM throughout.
In the case of `C[n+]1noc(/N=N\[O-])c1-c1cc(-c2c(/N=N\[O-])on[n+]2C)cc(-c2c(/N=N/[O-])on[n+]2C)c1`, the TGI in [1], in [2], in [3], in experiment [4], in experiment [5] and in [6] was > 100 µM throughout. In addition, the TGI in experiment [7], in experiment [8], in experiment [9], in [10], in experiment [11] and in experiment [12] was > 100 µM each time. Besides, the TGI in experiment [13], in experiment [14] and in experiment [15] was > 100 µM in each case.
On to `O=c1[nH]c(=O)n(C2CC(O)C(CO)O2)cc1OCCc1ccccc1` (stereo not drawn), for which the TGI in experiment [1], in experiment [2], in [3], in experiment [4], in [6] and in [7] was > 100 µM in each case. The TGI in experiment [8], in experiment [9], in [10], in [11], in experiment [12] and in experiment [13] was > 100 µM each time. In addition, the TGI in experiment [14] and in experiment [15] was > 100 µM in each case.

The record behind these values is PubChem BioAssay (NCI).
